Source: US6545007B2, “Methods for inhibiting the transmission of HIV using topically applied substituted 6-benzyl-4-oxopyrimidines” (Idenix (Cayman) Limited, priority 2000, dated 2003)
Like-named read-outs stand apart in the source and are kept apart here.

Legend:
mock-infected MT-4 cells = assay: Cytotoxicity: viability of mock-infected cells by the MTT method; format: cell-based, human
Protocol: (§1) Cells and viruses. MT-4, C8166,H9/IIIB and CEM cells were grown at 37° C. in a 5% CO2 atmosphere in RPMI 1640 medium, supplemented with 10% fetal calf serum (FCS), 100 IU/mL penicillin and 100 μg/mL streptomycin. Cell cultures were checked periodically for the absence of mycoplasma contamination with a MycoTect Kit (Gibco). Human immunodeficiency virus type-I (HIV-1, IIIB strain) was obtained from supernatants of persistently infected H9/IIIB cells.
(§2) Anti-HIV Assays. Activity of the compounds against HIV-1 and HIV-2 multiplication in acutely infected cells was based on the inhibition of virus-induced cytopathicity in MT-4 and C8166 cells, respectively. Briefly, 50 μL of culture medium containing 1×10^4 cells were added to each well of flat-bottom microtiter trays containing 50 μl of culture medium with or without various concentrations of the test compounds. Then 20 μL of an HIV suspension containing 100 CCID50 were added. After a 4-day incubation at 37° C., the number of viable cells was determined by the 3-(4,5-dimethylthiazol-[…])-2,5-diphenyltetrazolium bromide (MTT) method. Cytotoxicity of the compounds was evaluated in parallel with their antiviral activity. It was based on the viability of mock-infected cells, as monitored by the MTT method.

HIV-1 (IIIB strain) = format: cell-based; details: for EC50: anti-HIV-1 activity; for SI: selectivity index (CC50/EC50)
Protocol: Compounds. Compounds were solubilized in DMSO at 200 mM and then diluted into culture medium.
as §1
HIV Titration. Titration of HIV was performed in C8166 cells by the standard limiting dilution method (dilution 1:2, four replica wells per dilution) in 96-well plates. The infectious virus titre was determined by light microscope scoring of cytopathicity after 4 days of incubation and the virus titres were expressed as CCID50/mL.
as §2

[1] = acutely infected MT-4 cells, MTT

SMILES | CC50 (mock-infected MT-4 cells; MTT) [µM] | EC50 (HIV-1 (IIIB strain); [1]) [µM] | CC50 (mock-infected MT-4 cells) [µM] | EC50 (HIV-1 (IIIB strain); HIV-1-infected MT-4 cells) [µM] | SI (HIV-1 (IIIB strain))
CCCCNc1nc(Cc2c(F)cccc2F)c(C)c(=O)[nH]1 [MC 1185] | > 200 | 0.02 | – | – | –
CCN(CC)c1nc(Cc2c(F)cccc2F)cc(=O)[nH]1 [MC 1202] | > 200 | 0.26 | – | – | –
CCC(C)Sc1nc(Cc2cccc(Cl)c2)c(C)c(=O)[nH]1 (stereo not shown) [MC 910] | – | – | > 200 | 0.96 | >208
Cc1c(C(C)c2c(F)cccc2F)nc(SC(C)C)[nH]c1=O (stereo not shown) [MC 1137] | 200 | 0.007 | – | – | –
CC(c1cc(=O)[nH]c(SC2CCCCC2)n1)c1c(Cl)cccc1Cl (stereo not shown) [MC 1016] | – | – | > 200 | 2.9 | >69
Cc1c(Cc2c(Cl)cccc2Cl)nc(SC2CCCC2)[nH]c1=O [MC 915] | – | – | > 200 | 1.8 | >111
CCC(c1ccccc1)c1cc(=O)[nH]c(SC2CCCC2)n1 (stereo not shown) [MC 900] | – | – | > 200 | 1 | >200
O=c1cc(Cc2c(F)cccc2F)nc(NC2CCCCC2)[nH]1 [MC 1049] | – | – | 66 | 0.14 | 471
Cc1ccccc1Cc1cc(=O)[nH]c(SC2CCCC2)n1 [MC 842] | – | – | > 200 | 3.4 | >59
CCCNc1nc(C(C)c2c(F)cccc2F)cc(=O)[nH]1 (stereo not shown) [MC 1190] | 103 | 0.02 | – | – | –
CNc1nc(C(C)c2c(F)cccc2F)c(C)c(=O)[nH]1 (stereo not shown) [MC 1170] | ≥ 200 | 0.03 | – | – | –
CCC(C)Nc1nc(Cc2c(F)cccc2F)c(C)c(=O)[nH]1 (stereo not shown) [MC 1130] | – | – | 200 | 0.07 | 2,857
CCC(C)Sc1nc(Cc2ccccc2C)c(C)c(=O)[nH]1 (stereo not shown) [MC 844] | – | – | > 200 | 1.7 | >118
CCC(c1cc(=O)[nH]c(SC2CCCC2)n1)c1c(Cl)cccc1Cl (stereo not shown) [MC 1002] | – | – | 23.4 | 1 | 23.4
CCC(c1cc(=O)[nH]c(SC2CCCCC2)n1)c1c(F)cccc1F (stereo not shown) [MC 1014] | – | – | 130 | 0.05 | 2,600
CN1CCN(c2nc(Cc3c(F)cccc3F)cc(=O)[nH]2)CC1 [MC 1183] | > 200 | 7.1 | – | – | –
CCC(c1cc(=O)[nH]c(SC(C)C)n1)c1cccc2ccccc12 (stereo not shown) [MC 969] | – | – | 50 | 1.5 | 33.3
CCCCSc1nc(C(C)c2c(F)cccc2F)cc(=O)[nH]1 (stereo not shown) [MC 1045] | – | – | > 200 | 0.07 | 2,857
CCC(C)Sc1nc(Cc2cccc([N+](=O)[O-])c2)cc(=O)[nH]1 (stereo not shown) [MC 897] | – | – | 157 | 0.4 | 392
CC(c1cc(=O)[nH]c(SC2CCCC2)n1)c1c(Cl)cccc1Cl (stereo not shown) [MC 996] | – | – | 78.3 | 1 | 78.3
CNc1nc(Cc2c(F)cccc2F)c(C)c(=O)[nH]1 [MC 1168] | – | – | 135 | 0.4 | 335
CCCc1c(Cc2ccccc2)nc(SC(C)CC)[nH]c1=O (stereo not shown) [MC 856] | – | – | 190 | 12 | 16
Cc1c(Cc2c(F)cccc2F)nc(N2CCN(C)CC2)[nH]c1=O [MC 1203] | > 200 | 0.36 | – | – | –
CCC(C)Sc1nc(Cc2ccc(OC)cc2)cc(=O)[nH]1 (stereo not shown) [MC 964] | – | – | 147 | 14 | 10.5
CCC(C)Sc1nc(Cc2cccc(OC)c2)cc(=O)[nH]1 (stereo not shown) [MC 957] | – | – | > 200 | 1.2 | >166
C=CCc1c(Cc2ccccc2)nc(SC(C)CC)[nH]c1=O (stereo not shown) [MC 852] | – | – | > 200 | 3 | >67
CC(c1ccccc1)c1cc(=O)[nH]c(SC2CCCC2)n1 (stereo not shown) [MC 892] | – | – | 159 | 0.6 | 333
CNc1nc(C(C)c2c(F)cccc2F)cc(=O)[nH]1 (stereo not shown) [MC 1178] | 106 | 0.11 | – | – | –
